From ChEMBL document CHEMBL1138441, “3-Benzyl-1,3-oxazolidin-2-ones as mGluR2 positive allosteric modulators: Hit-to lead and lead optimization” (Bioorg Med Chem Lett, 2009) come the findings set out here.

Structures are written as SMILES.

Data set [1] in a line: Drug level in mouse brain at 10 mg/kg, sc after 2 hrs. The settings on record: read-out: Drug uptake. The class given is ADME, organism-based. Details: dose 10 mg/kg, route subcutaneous.
The nature of data set [2]: Plasma concentration in mouse at 10 mg/kg, sc after 2 hrs. The class given is ADME, organism-based. Details: dose 10 mg/kg, route subcutaneous. As to conditions: read-out: Drug uptake.
Data set [3] can be described thus: Ratio of drug level in mouse brain to plasma at 10 mg/kg, sc after 2 hrs. Details: dose 10 mg/kg, route subcutaneous. It counts as ADME, organism-based.
Data set [4] can be described thus: Volume of distribution at steady state in rat at 1 mg/kg, iv. Details: dose 1 mg/kg, route intravenous. It counts as ADME, organism-based. The settings on record: in vivo, read-out: Vdss.
Data set [5] can be described thus: Oral bioavailability in rat at 10 mg/kg. The settings on record: in vivo. It counts as ADME, organism-based.
Data set [6] can be described thus: Drug level in mouse brain at > 32 mg/kg, sc after 30 mins. Further details: dose 32 mg/kg, route subcutaneous. As to conditions: read-out: Drug uptake. The class given is ADME, organism-based.
Data set [7] is described as follows: Plasma concentration in mouse at > 32 mg/kg, sc after 30 mins. It counts as ADME, organism-based. Details: dose 32 mg/kg, route subcutaneous. The settings on record: read-out: Drug uptake.
Data set [8] can be described thus: Oral bioavailability in rat at 3 mg/kg. The class given is ADME, organism-based. The settings on record: in vivo.
Data set [9] can be described thus: Permeability from apical to basolateral side of MDCK cells at 2 uM by MS based assay. The settings on record: dog. The class given is ADME, cell-based, Canis lupus familiaris.
Data set [10] in a line: Ratio of drug level in mouse brain to plasma at > 32 mg/kg, sc after 30 mins. Details: dose 32 mg/kg, route subcutaneous. The class given is ADME, organism-based.

What is called Kp is the ratio of the level in a tissue or fluid to that in plasma or blood. As a reminder, the bioavailability is dose-corrected exposure relative to a reference, in per cent. Read a low bioavailability as poor availability. Turning to `C[C@@H]1CN(Cc2ccc(-c3ccc(F)c(Cl)c3)cc2)C(=O)O1`, the concentration at 2 h in data set [1] stood at 2750 ng/g; in [2], 750 ng/mL. The Kp at 2 h in data set [3] is 3.7. The Vd in data set [4] was 3.2 L/kg. The bioavailability in data set [5] was found to be 64%.

Turning to `C[C@@H]1CN(Cc2ccc(-c3ccc(OC(F)(F)F)cc3F)nc2)C(=O)O1`, the concentration at 0.5 h in data set [6] was 10100 ng/g; in data set [7], 3550 ng/mL. Moreover, the Vd in [4] was 4.7 L/kg. Besides, the bioavailability in data set [8] was determined as 100%.

In the case of `C[C@@H]1CN(Cc2ccc(-c3ccc(F)cc3F)cc2)C(=O)O1`, the concentration at 2 h came out at 2230 ng/g in data set [1] and 1070 ng/mL in [2]. Further, the Kp at 2 h in data set [3] came out at 2.1.

A word on the Papp A→B: it is the apparent permeability from the apical to the basolateral side of a cell layer. Read a high Papp A→B as fast passage. `CC(Oc1ccc(CN2C[C@@H](C)OC2=O)cc1)C1CCCCC1` (single isomer, unassigned) returned an apparent permeability from apical to basolateral (Papp A→B) at 2 µM in data set [9] of 12.3 ×10⁻⁶ cm/s. Moreover, in data set [10], the Kp at 0.5 h amounted to 3.
